Literature values in PMC6286348, “Inhibitor binding mode and allosteric regulation of Na^+-glucose symporters” (Nature Communications, 2018).
Residue numbers refer to the chain shown, from its start.

Key:
Conditions in all cases: oocytes, 22 °C; cited from earlier work
hSGLT1 F101C = test system: hSGLT1 F101C; set-up: method as in PMID 22159082
hSGLT1 T287C = target: T1, hSGLT1 T287C (Homo sapiens, UniProt P13866, T287C); set-up: method as in PMID 29087341
T1 construct: expressed in transfected cells; host or cells: Xenopus laevis oocytes injected with cRNA
T1 sequence (P13866 1-664 T287C): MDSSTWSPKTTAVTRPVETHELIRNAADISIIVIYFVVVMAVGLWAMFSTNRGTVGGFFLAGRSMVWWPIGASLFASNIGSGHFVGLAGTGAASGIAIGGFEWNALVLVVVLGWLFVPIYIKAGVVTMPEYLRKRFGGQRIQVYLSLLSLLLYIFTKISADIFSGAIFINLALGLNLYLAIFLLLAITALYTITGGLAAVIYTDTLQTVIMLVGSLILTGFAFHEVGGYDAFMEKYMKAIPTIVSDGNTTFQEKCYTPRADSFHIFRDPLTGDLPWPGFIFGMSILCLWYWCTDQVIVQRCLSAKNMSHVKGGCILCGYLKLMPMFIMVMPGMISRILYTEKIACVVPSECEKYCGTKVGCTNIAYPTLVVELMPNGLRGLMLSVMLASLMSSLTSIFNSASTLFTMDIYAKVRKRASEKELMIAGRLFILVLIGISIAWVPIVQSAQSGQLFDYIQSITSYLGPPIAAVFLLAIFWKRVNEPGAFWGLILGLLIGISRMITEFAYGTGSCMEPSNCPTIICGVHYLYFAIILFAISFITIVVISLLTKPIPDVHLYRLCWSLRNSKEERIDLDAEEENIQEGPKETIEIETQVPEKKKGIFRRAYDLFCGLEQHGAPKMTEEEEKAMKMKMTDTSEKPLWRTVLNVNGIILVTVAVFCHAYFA

hSGLT1 Y290F = target: T2, hSGLT1 Y290F (Homo sapiens, UniProt P13866, Y290F); set-up: method as in PMID 23116249
T2 construct: expressed in transfected cells; host or cells: Xenopus laevis oocytes injected with cRNA
T2 sequence (P13866 1-664 Y290F): T1 sequence (P13866 1-664 T287C) with C287T, Y290F

[Na+] [Na^+]
K0.5 Na^+ (hSGLT1 F101C): 9 ± 1[20] mM | K0.5 Na^+ (hSGLT1 T287C): 6 ± 0.2[19] mM | K0.5 Na^+ (hSGLT1 Y290F): 20 ± 1[21] mM
